Test results as given in paper PMC8596589 (Chembiochem : a European journal of chemical biology, 2021).
“Also recorded” adds a separate entry of the source.

Assays:
Dop [1] = biological target: T1, Dop (Mycolicibacterium smegmatis, UniProt A0QZ49); assay: ATP competition assay / KM of ATP for Dop; type: biochemical, M. smegmatis
T1 sequence (A0QZ49 1-498): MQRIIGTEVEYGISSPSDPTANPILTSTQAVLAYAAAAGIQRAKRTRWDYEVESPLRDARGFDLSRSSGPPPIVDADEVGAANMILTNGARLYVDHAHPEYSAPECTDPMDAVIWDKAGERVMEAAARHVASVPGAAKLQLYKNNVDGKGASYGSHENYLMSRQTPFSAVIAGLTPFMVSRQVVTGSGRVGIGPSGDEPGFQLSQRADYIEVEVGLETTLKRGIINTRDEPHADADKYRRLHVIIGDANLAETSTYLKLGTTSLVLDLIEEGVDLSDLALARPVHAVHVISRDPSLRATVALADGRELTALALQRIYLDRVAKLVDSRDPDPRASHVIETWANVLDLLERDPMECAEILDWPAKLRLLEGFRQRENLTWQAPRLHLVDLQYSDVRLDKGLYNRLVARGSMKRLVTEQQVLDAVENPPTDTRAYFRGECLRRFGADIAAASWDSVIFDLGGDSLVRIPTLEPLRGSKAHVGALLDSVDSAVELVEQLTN

Dop [2] = biological target: T1, Dop; assay: biochemical; type: biochemical, M. smegmatis
Dop [3] = biological target: T1, Dop; type: biochemical, M. smegmatis; details: 100 μM inhibitor; 10 nM Dop; 250 nM FabD-Pup; 30 min
PafA [4] = biological target: T2, PafA (Mycobacterium tuberculosis, UniProt P9WNU7); type: biochemical, Mtb; details: 100 μM inhibitor; 50 nM PafA; 2 hours
T2 sequence (P9WNU7 1-452): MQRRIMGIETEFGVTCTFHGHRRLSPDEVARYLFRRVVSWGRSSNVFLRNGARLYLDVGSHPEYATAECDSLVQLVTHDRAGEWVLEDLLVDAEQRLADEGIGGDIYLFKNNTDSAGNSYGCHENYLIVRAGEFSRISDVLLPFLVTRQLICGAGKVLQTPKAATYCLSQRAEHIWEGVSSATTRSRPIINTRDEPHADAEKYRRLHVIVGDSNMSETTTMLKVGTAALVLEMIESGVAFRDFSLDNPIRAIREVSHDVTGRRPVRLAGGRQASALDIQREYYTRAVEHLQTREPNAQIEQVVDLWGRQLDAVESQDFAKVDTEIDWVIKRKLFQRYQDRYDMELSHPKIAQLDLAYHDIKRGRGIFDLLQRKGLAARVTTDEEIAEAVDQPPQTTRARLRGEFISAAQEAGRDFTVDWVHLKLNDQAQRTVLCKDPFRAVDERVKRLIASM

PafA [5] = biological target: T2, PafA; type: biochemical, Mtb; details: 100 µM compound; 50 nM PafA; 2 hours
PafA [6] = biological target: T2, PafA; type: biochemical, Mtb; details: 100 µM inhibitor; 250 nM FabD; 50 nM PafA; six hours
Dop [7] = biological target: T1, Dop; assay: Jump-dilution assay; type: biochemical, M. smegmatis

Compound | Inhibition of depupylation of FabD-Pup by PafA (PafA [4]) | Inhibition of pupylation of FabD by PafA (ligase activity) (PafA [6]) | IC50 (Dop [2]) | further results
Nc1ncnc2c1ncn2[C@@H]1O[C@H](COP(=O)(O)OP(=O)(O)OP(=O)(O)O)[C@@H](O)[C@H]1O [ATP] | – | – | – | Km (Dop [1]; read-out: KM of ATP for Dop, Michaelis-Menten curve of Dop vs. [ATP]): 320 ± 30 µM
COc1cc(/C=C(\C#N)C(=O)c2ccc(O)c(O)c2)cc(I)c1O [Compound 1, I-OMe-Tyrphostin AG538] | partly inhibited | partly inhibited | – | IC50 at 10-fold increased Dop concentration (ratio test) (Dop [2]): 0.70 ± 0.03 μM; IC50 at routine Dop concentration (ratio test) (Dop [2]; 30 nM Dop): 0.26 ± 0.06 µM; Inhibition of depupylation of FabD-Pup by Dop (Dop [3]): incompletely inhibited; Inhibition of depupylation of Ino1-Pup by PafA (PafA [5]): partially inhibited; Dop activity after 100-fold dilution (jump-dilution) (Dop [7]): Complete restoration of Dop activity; Change of IC50 with ATP concentration (Dop [1]; eight ATP concentrations, 0.1–6.4 mM): did not significantly increase
N#C/C(=C\c1ccc(O)c(O)c1)C(=O)c1ccc(O)c(O)c1 [Compound 2, Tyrphostin AG538] | completely inhibited; also recorded: fully inhibits; also recorded: efficiently inhibit | completely inhibited; also recorded: fully inhibits; also recorded: efficiently inhibit | – | Inhibition of depupylation of FabD-Pup by Dop (Dop [3]): failed to inhibit; also recorded: did not inhibit; also recorded: leaving Dop activity intact; Inhibition of depupylation of Ino1-Pup by PafA (PafA [5]): partially inhibited
COc1cc(/C=C(\C#N)C(=O)c2ccccc2)cc(I)c1O [Compound 5a] | – | – | 5.4 ± 0.5 µM | –
N#C/C(=C\c1ccccc1)C(=O)c1ccccc1 [Compound 5b] | – | – | > 100 µM | –
COc1cc(/C=C(\C#N)C(=O)c2ccc(O)c(O)c2)ccc1O [Compound 10a] | – | – | > 100 µM | –
COc1cc(/C=C(\C#N)C(=O)c2ccc(O)c(O)c2)cc([N+](=O)[O-])c1O [Compound 10b] | – | – | 4.1 ± 0.1 µM | –
COc1cc(/C=C(\C#N)C(=O)c2ccc(O)c(O)c2)cc(Br)c1O [Compound 10i] | partly inhibited | partly inhibited | 2.7 ± 0.2 µM | –
N#C/C(=C\c1cc(O)c(O)c(I)c1)C(=O)c1ccc(O)c(O)c1 [Compound 10k] | completely inhibited | completely inhibited | 0.29 ± 0.01 µM | Inhibition of depupylation of Ino1-Pup by PafA (PafA [5]): fully inhibited
COc1cc(/C=C/C(=O)c2ccccc2)cc(I)c1O [Compound 12] | – | – | 29 µM | Decrease in potency compared to 1 (Dop [2]; ratio of IC50 values vs compound 1): 60 fold
COc1cc(/C=C(\C#N)C(O)c2ccccc2)cc(I)c1O (stereo not shown) [Compound 13] | – | – | 57 µM | –
COc1cc(CC(C#N)C(O)c2ccccc2)cc(I)c1O (stereo not shown) [Compound 14] | – | – | – | Dop inhibition in the fluorogenic assay (in words) (Dop [2]; Pup(33–63)-Glu(AMC) substrate, highest conc. 100 µM): complete loss of activity
